Source: patent US8025905B2, “Method for reducing allergencity in indoor spaces” (priority 2001, dated 2011)

B1: subtilisin BPN: subtilisin-type protease derived from B. amyloliquefaciens (protein, UniProt P00782 108-382, looked up)
Subtilisin BPN': AQSVPYGVSQIKAPALHSQGYTGSNVKVAVIDSGIDSSHPDLKVAGGASMVPSETNPFQDNNSHGTHVAGTVAALNNSIGVLGVAPSASLYAVKVLGADGSGQYSWIINGIEWAIANNMDVINMSLGGPSGSAALKAAVDKAVASGVVVVAAAGNEGTSGSSSTVGYPGKYPSVIAVGAVDSSNQRASFSSVGPELDVMAPGVSIQSTLPGNKYGAYNGTSMASPHVAGAAALILSKHPNWTNTQVRSSLENTTTKLGDSFYYGKGLINVQAAAQ
B2: subtilisin savinase: subtilisin-type protease derived from Bacillus lentus (protein, UniProt P29600 1-269, looked up)
Subtilisin Savinase: AQSVPWGISRVQAPAAHNRGLTGSGVKVAVLDTGISTHPDLNIRGGASFVPGEPSTQDGNGHGTHVAGTIAALNNSIGVLGVAPSAELYAVKVLGASGSGSVSSIAQGLEWAGNNGMHVANLSLGSPSPSATLEQAVNSATSRGVLVVAASGNSGAGSISYPARYANAMAVGATDQNNNRASFSQYGAGLDIVAPGVNVQSTYPGSTYASLNGTSMATPHVAGAAALVKQKNPSWSNVQIRNHLKNTATSLGSTNLYGSGLVNAEAATR

How the values were obtained:
house dust mites = settings: levels of only 0.1% permethrin; cited from earlier work
[1] = ointment containing 5% permethrin applied for 12 hours, then washed off; cited from earlier work
allergenic polypeptides = experiment: Enzymatic degradation of allergens by proteases; type: biochemical
Source text: Any enzyme that will cleave the allergenic polypeptides to destroy the epitopes recognized by the asthmatic's sensitized immune system is suitable, but proteases that are less specific (i.e., hydrolyze peptide bonds between a variety of different amino acid residues, rather than only between specific residues) are preferred. […] Similar non-specific proteases are suitable for use in this invention, as well as Bacillus neutral proteases and the like. Genetically engineered enzymes are within the contemplation of this invention, so long as the resulting enzyme can be shown to destroy allergenic epitopes of the primary allergens, as shown by ELISA tests (see, e.g., U.S. Pat. No. 5,314,991). Suitable assays may be analogous to the tests for active T cell epitopes of Der pI, Der pII, Der f1, and Der fII disclosed in U.S. Pat. No. 5,968,526 (incorporated herein by reference).

Molecule	kill of house dust mites in carpet (house dust mites)	permethrin absorbed through the skin [1]	effectiveness in cleaving allergenic polypeptides (allergenic polypeptides)
CC1(C)C(C=C(Cl)Cl)C1C(=O)OCc1cccc(Oc2ccccc2)c1 (stereo not shown) [Permethrin]	100%	Less than 2%	–
B1	–	–	effective
B2	–	–	effective
